Experimental findings from patent US20110020786A1, “PEPTIDE DENDRIMERS: AFFINITY REAGENTS FOR BINDING NOROVIRUSES” (BAYLOR COLLEGE OF MEDICINE, priority 2007, published 2011) are described below.

Assay [1] addresses immobilized NoVLPs. The assay can be described thus: Surface plasmon resonance, dendrimer binding to immobilized NoVLPs (KD determination). To be noted: steady-state model fit of equilibrium average response, 8-240 μM dendrimer, HBS-P, 10 μL/min. Further details: species or system Norovirus. Here is the method:
FIGS. 4A-4B are charts illustrating the concentration dependence of RHFQTHTVPLSL8 (the octovalent dendrimer of SEQ ID NO: 1) binding to immobilized NoVLPs. 1-8 μM; 2-32 μM; 3-64 μM; 4-96 μM; 5-160 μM; 6-240 μM; (FIG. 4A). Samples were prepared in the running buffer (HBS-P) and injected at a flowrate of 10 μL/min. The arrow indicates the end of the injection of the dendrimer (binding phase) which is followed by washing with running buffer (dissociation phase).
Peptide binding to VLPs was detected using a BIAcore 3000 instrument. VLPs were immobilized to a CM5 sensor chip using amine coupling at 5 μL/min in HBS buffer (10 mM HEPES containing 0.15 M NaCl and 0.005% surfactant P20, pH 7.4): the sensor chip surface was activated by a 10 min injection of a solution of 0.05 M NHS (N-hydroxysuccinimide) and 0.2 M EDC (N-ethyl-N′-dimethylaminopropylcarbodiimide) followed by a 5 min injection of VLPs (100 μg/mL) in 10 mM sodium acetate pH 4 and blocking of unreacted activated groups with a 7 min injection of ethanolamine. Final surface densities were typically around 9000 RU.

Assay [2] relates to native genogroup II Norovirus from clinical samples. The assay can be described thus: Native NoV capture and detection in clinical samples by ELISA. The conditions noted are these: dendrimer as capture reagent, stool samples GII #1-3, bound virus detected with NS14. Type of assay: binding. As to the method: The capture reagent was RHFQTHTVPLSL8 (the octovalent dendrimer of SEQ ID NO: 1) (middle bars), or AHFQTHTVPLSL8 (the octovalent dendrimer of SEQ ID NO: 2) (right bars) and bound virus was detected with a MAb3912 (GI) or NS14 (GII). […] For comparison, detection of Norovirus from genogroup I samples (GI#1-3) was evaluated using a genogroup I specific antibody as the capture reagent (left bars). The potential of false positive signals was evaluated using clinical samples negative for Norovirus (negative #1-3) with anti-genogroup I antibody, RHFQTHTVPLSL8 (the octovalent dendrimer of SEQ ID NO: 1) and AHFQTHTVPLSL8 (the octovalent dendrimer of SEQ ID NO: 2) as capture reagents.
Capture and detection of native NoV from clinical samples was performed by ELISA. […] Captured NoV was detected with an anti-Norwalk virus antibody from rabbit (for genogroup I Norwalk detection) or NS14 (for genogroup II NoV detection) as the primary antibody followed by goat anti-rabbit-HRP or goat anti-mouse-HRP as the secondary antibody with detection at 405 nm using the HRP substrate ABTS.

Ends that are not written are not given here.

Substance “RHFQTHTVPLSL8 (also: octovalent dendrimer of the peptide)” returned a Kd in assay [1] of 117 µM. For the same substance, the “capture of native genogroup II Norovirus from clinical samples” value in assay [2] was “No genogroup II virus could be detected”.
